In ChEMBL document CHEMBL1158147, “Ultraviolet-mediated cytotoxic activity of phenylheptatriyne from Bidens pilosa L” (J Nat Prod, 1979):
The source made the active and inactive calls. The rule behind the calls is not given here.

Tests used:
[1] = system: Saccharomyces cerevisiae; assay: Phototoxicity against Saccharomyces cerevisiae at 2.5 ug/disk after UV irradiation for 180 mins; format: functional, organism-based
[2] = system: Bacillus subtilis; assay: Phototoxicity against Bacillus subtilis at 5 ug/disk in presence of long wave UV light; format: functional, organism-based
[3] = system: Bacillus subtilis; assay: Phototoxicity against Bacillus subtilis at 5 ug/disk in presence of cool-white fluorescent light; format: functional, organism-based
[4] = system: Kocuria rosea; assay: Phototoxicity against Micrococcus roseus UBC 289 at 5 ug/disk in presence of long wave UV light; format: functional, organism-based
[5] = system: Kocuria rosea; assay: Phototoxicity against Micrococcus roseus UBC 289 at 5 ug/disk in presence of cool-white fluorescent light; format: functional, organism-based
[6] = system: Staphylococcus epidermidis; assay: Phototoxicity against Staphylococcus albus at 5 ug/disk in presence of long wave UV light; format: functional, organism-based
[7] = system: Staphylococcus epidermidis; assay: Phototoxicity against Staphylococcus albus at 5 ug/disk in presence of cool-white fluorescent light; format: functional, organism-based
[8] = system: Staphylococcus epidermidis; assay: Phototoxicity against Staphylococcus albus at 5 ug/disk in dark; format: functional, organism-based
[9] = system: Enterococcus faecalis; assay: Phototoxicity against Streptococcus faecalis at 5 ug/disk in presence of long wave UV light; format: functional, organism-based
[10] = system: Enterococcus faecalis; assay: Phototoxicity against Streptococcus faecalis at 5 ug/disk in presence of cool-white fluorescent light; format: functional, organism-based
[11] = system: Enterococcus faecalis; assay: Phototoxicity against Streptococcus fecalis at 5 ug/disk in dark; format: functional, organism-based
[12] = system: Escherichia coli; assay: Phototoxicity against Escherichia coli at 5 ug/disk in presence of cool-white fluorescent light; format: functional, organism-based
[13] = system: Escherichia coli; assay: Phototoxicity against Escherichia coli at 5 ug/disk in dark; format: functional, organism-based
[14] = system: Proteus mirabilis; assay: Phototoxicity against Proteus mirabilis UBC 5 at 5 ug/disk in presence of long wave UV light; format: functional, organism-based
[15] = system: Proteus mirabilis; assay: Phototoxicity against Proteus mirabilis UBC 5 at 5 ug/disk in presence of cool-white fluorescent light; format: functional, organism-based
[16] = system: Proteus mirabilis; assay: Phototoxicity against Proteus mirabilis UBC 5 at 5 ug/disk in dark; format: functional, organism-based
[17] = system: Pseudomonas fluorescens; assay: Phototoxicity against Pseudomonas fluorescens at 5 ug/disk in presence of cool-white fluorescent light; format: functional, organism-based
[18] = system: Pseudomonas fluorescens; assay: Phototoxicity against Pseudomonas fluorescens at 5 ug/disk in dark; format: functional, organism-based
[19] = system: Candida albicans; assay: Phototoxicity against Candida albicans at 5 ug/disk in presence of cool-white fluorescent light; format: functional, organism-based
[20] = system: Saccharomyces cerevisiae; assay: Phototoxicity against Saccharomyces cerevisiae at 2.5 ug/disk after UV irradiation for 30 mins; format: functional, organism-based
[21] = system: Candida albicans; assay: Phototoxicity against Candida albicans at 2.5 ug/disk after UV irradiation for 180 mins; format: functional, organism-based
[22] = system: Saccharomyces cerevisiae; assay: Phototoxicity against Saccharomyces cerevisiae at 5 ug/disk in presence of long wave UV light; format: functional, organism-based
[23] = system: Saccharomyces cerevisiae; assay: Phototoxicity against Saccharomyces cerevisiae at 5 ug/disk in presence of cool-white fluorescent light; format: functional, organism-based
[24] = system: Saccharomyces cerevisiae; assay: Phototoxicity against Saccharomyces cerevisiae at 5 ug/disk in dark; format: functional, organism-based
[25] = system: Sporobolomyces; assay: Phototoxicity against Sporobolomyces sp. Y138 at 5 ug/disk in presence of long wave UV light; format: functional, organism-based
[26] = system: Sporobolomyces; assay: Phototoxicity against Sporobolomyces sp. Y138 at 5 ug/disk in presence of cool-white fluorescent light; format: functional, organism-based
[27] = system: Sporobolomyces; assay: Phototoxicity against Sporobolomyces sp. Y138 at 5 ug/disk in dark; format: functional, organism-based
[28] = system: Torula; assay: Phototoxicity against Torula sp. at 5 ug/disk in presence of cool-white fluorescent light; format: functional, organism-based
[29] = system: Fusarium sp.; assay: Phototoxicity against Fusarium sp. at 5 ug/disk in presence of long wave UV light; format: functional, organism-based
[30] = system: Fusarium sp.; assay: Phototoxicity against Fusarium sp. at 5 ug/disk in dark; format: functional, organism-based
[31] = system: Microsporum canis; assay: Phototoxicity against Microsporum canis at 5 ug/disk in dark; format: functional, organism-based
[32] = system: Paraphyton cookei; assay: Phototoxicity against Microsporum cookei at 5 ug/disk in presence of long wave UV light; format: functional, organism-based
[33] = system: Paraphyton cookei; assay: Phototoxicity against Microsporum cookei at 5 ug/disk in dark; format: functional, organism-based
[34] = system: Nannizzia gypsea; assay: Phototoxicity against Microsporum gypseum at 5 ug/disk in presence of long wave UV light; format: functional, organism-based
[35] = system: Trichophyton mentagrophytes; assay: Phototoxicity against Trichophyton mentagrophytes at 5 ug/disk in presence of cool-white fluorescent light; format: functional, organism-based
[36] = system: Trichophyton mentagrophytes; assay: Phototoxicity against Trichophyton mentagrophytes at 5 ug/disk in dark; format: functional, organism-based
[37] = system: Saccharomyces cerevisiae; assay: Effect on Saccharomyces cerevisiae assessed as viable cell count at 10 ug/ml in petroleum ether after 1.33 Joules/cm'2 UV irradiation for 15 mins; format: functional
[38] = system: Saccharomyces cerevisiae; assay: Effect on Saccharomyces cerevisiae assessed as viable cell count at 10 ug/ml in petroleum ether after 2.67 Joules/cm'2 UV irradiation for 30 mins; format: functional
[39] = system: Saccharomyces cerevisiae; assay: Effect on Saccharomyces cerevisiae assessed as viable cell count at 10 ug/ml in petroleum ether after 16 Joules/cm'2 UV irradiation for 180 mins; format: functional
[40] = system: Saccharomyces cerevisiae; assay: Effect on Saccharomyces cerevisiae assessed as viable cell count at 10 ug/ml in petroleum ether in dark after 15 mins; format: functional
[41] = system: Saccharomyces cerevisiae; assay: Effect on Saccharomyces cerevisiae assessed as viable cell count at 10 ug/ml in petroleum ether in dark after 30 mins; format: functional
[42] = system: Saccharomyces cerevisiae; assay: Effect on Saccharomyces cerevisiae assessed as viable cell count at 10 ug/ml in petroleum ether in dark after 180 mins; format: functional
[43] = Effect on human skin fibroblast cells assessed as viable cell count at 10 ug/ml in petroleum ether after 5.33 Joules/cm UV irradiation for 60 mins by trypan blue exclusion method; format: ADME, cell-based; conditions: read-out: Activity
[44] = Effect on human skin fibroblast cells assessed as viable cell count at 10 ug/ml in petroleum ether after 8.00 Joules/cm UV irradiation for 90 mins by trypan blue exclusion method; format: ADME, cell-based; conditions: read-out: Activity
[45] = Effect on human skin fibroblast cells assessed as viable cell count at 10 ug/ml in petroleum ether in dark after 60 mins by trypan blue exclusion method; format: ADME, cell-based; conditions: read-out: Activity
[46] = system: Candida albicans; assay: Phototoxicity against Candida albicans at 2.5 ug/disk after UV irradiation for 15 mins; format: functional; conditions: light or radiation study, 0.25 h, read-out: IZ
[47] = system: Saccharomyces cerevisiae; assay: Phototoxicity against Saccharomyces cerevisiae at 2.5 ug/disk after UV irradiation for 15 mins; format: functional; conditions: light or radiation study, 0.25 h, read-out: IZ
[48] = system: DNA; assay: Photochemical activity against denatured calf thymus DNA at 10 ug by hyperchromicity test; format: nucleic-acid assay; conditions: Bos taurus
[49] = system: DNA; assay: Photochemical activity against denatured calf thymus DNA 10 ug after UV irradiation with 2.67 Joules/cm'2 for 30 mins at by hyperchromicity test; format: nucleic-acid assay; conditions: Bos taurus
[50] = system: DNA; assay: Photochemical activity against denatured calf thymus DNA at 10 ug after UV irradiation with 5.33 Joules/cm'2 for 60 mins by hyperchromicity test; format: nucleic-acid assay; conditions: Bos taurus
[51] = system: DNA; assay: Photochemical activity against denatured calf thymus DNA at 10 ug after UV irradiation with 10.67 Joules/cm'2 for 120 mins by hyperchromicity test; format: nucleic-acid assay; conditions: Bos taurus; also: unit not given here
[52] = system: DNA; assay: Photochemical activity against denatured calf thymus DNA at 10 ug in dark after 30 mins by hyperchromicity test; format: nucleic-acid assay; conditions: Bos taurus
[53] = system: DNA; assay: Photochemical activity against denatured calf thymus DNA at 10 ug in dark after 60 mins by hyperchromicity test; format: nucleic-acid assay; conditions: Bos taurus; also: unit not given here
[54] = system: DNA; assay: Photochemical activity against denatured calf thymus DNA at in dark after 120 mins by hyperchromicity test; format: nucleic-acid assay; conditions: Bos taurus; also: unit not given here
[55] = system: DNA; assay: Photochemical activity against denatured calf thymus DNA at in dark after 180 mins by hyperchromicity test; format: nucleic-acid assay; conditions: Bos taurus

Activity [48]: 0.18
Activity [49]: 0.03
Activity [50]: 0.02
Activity [51]: 0.01
Activity [52]: 0.17
Activity [53]: 0.18
Activity [54]: 0.19
Activity [55]: 0.18
SMILES: CC#CC#CC#Cc1ccccc1 [PHENYLHEPTATRIYNE]
Activity [1]: inactive
Activity [2]: Active
Activity [3]: Active
Activity [4]: Active
Activity [5]: Active
Activity [6]: Active
Activity [7]: Active
Activity [8]: inactive
Activity [9]: Active
Activity [10]: Active
Activity [11]: inactive
Activity [12]: inactive
Activity [13]: inactive
Activity [14]: Active
Activity [15]: inactive
Activity [16]: inactive
Activity [17]: inactive
Activity [18]: inactive
Activity [19]: Active
Activity [20]: inactive
Activity [21]: inactive
Activity [22]: Active
Activity [23]: Active
Activity [24]: inactive
Activity [25]: Active
Activity [26]: Active
Activity [27]: inactive
Activity [28]: inactive
Activity [29]: Active
Activity [30]: inactive
Activity [31]: inactive
Activity [32]: Active
Activity [33]: inactive
Activity [34]: Active
Activity [35]: Active
Activity [36]: inactive
Activity [37]: 2.57
Activity [38]: 0.02
Activity [39]: 0
Activity [40]: 24.2
Activity [41]: 35.8
Activity [42]: 53.5
viability at 1 h, 10 ug/ml [43]: 0%
viability at 1.5 h, 10 ug/ml [44]: 0%
viability at 1 h, 10 ug/ml [45]: 100%
zone of inhibition at 2.5 µg/disc [46]: 11 mm
zone of inhibition at 2.5 µg/disc [47]: 10 mm
